The subject of this test is R223X stop codon in the mutated luciferase gene, ADXC8 luciferase reporter cell line. Nature of the test: cells. It is filed as cell-based. The following applies: ADXC8 cells, 24 hours; for Emax / EC (100% of 200 uM G418 response): 24 h; for Emax: read-out: Fold Over Control, maximum fold response relative to 200 μM G418; for EC (100% of 200 uM G418 response): read-out: pC100%, negative logarithm of the concentration giving the same response as 200 μM G418; for pC100%: negative logarithm of the concentration giving the same response as 200 μM G418.

Consider 51 compounds from patent publication US20260234144A1 (TAY THERAPEUTICS LIMITED, priority 2023, published 2026).

Molecules are shown by their SMILES. Bounds are passed on as bounds.

Regarding `Cc1cc(C)c2c(N)nc(NC3CCN(Cc4cccc(C(=O)N(C)C)c4)CC3)nc2n1` [Example 462], the Emax was in the range of 0 to 100% and the EC (100% of 200 uM G418 response) was > 31.6 µM.
In the case of `Cc1cc(C)c2c(NC(C)C)nc(NC3CCN(C)CC3)nc2n1` [Example 264], the Emax is 100 to 3000% and the EC (100% of 200 uM G418 response) was 1 to 10 µM.
For the compound `Cc1nc2nc(N[C@@H]3CCNC3)nc(N)c2c2c1CCC2` [Example 295], the EC (100% of 200 uM G418 response) lay within 0.1 to 1 µM.
Regarding `C#Cc1ccnc2nc(NC3CCN(C)CC3)nc(N)c12` [Example 249, 5-ethynyl-N^2-(1-methylpiperidin-4-yl)pyrido[2,3-d]pyrimidine-2,4-diamine], the Emax was in the range of 100 to 3000% and the EC (100% of 200 uM G418 response) was in the range of 10 to 100 µM.
For `Cc1cc(C)c2c(N)nc(NC3CCN(Cc4ccc(C#N)cc4O)CC3)nc2n1` [Example 567], in that order: 100 to 3000% and 0.1 to 1 µM.
Consider `CCN1C[C@H](Nc2nc(NC)c3c(C)cc(C)nc3n2)[C@@H](O)C1` [Example 626], for which the Emax fell in the range of 100 to 3000% and the EC (100% of 200 uM G418 response) was in the range of 1 to 10 µM.
Regarding `CNc1nc(N[C@@H]2CN(C)C[C@@H]2C)nc2nc(C)cc(C)c12` [Example 377], the Emax lay in the range of 100 to 3000% and the EC (100% of 200 uM G418 response) was in the range of 1 to 10 µM.
Regarding `CNc1nc(N[C@H]2CNC[C@@H]2OC)nc2nc3c(c(C)c12)CCC3` [Example 623], the EC (100% of 200 uM G418 response) is 0.1 to 1 µM.
Take `Cc1cc(C)c2c(N)nc(NC3CCCN(C(=O)OC(C)(C)C)CC3)nc2n1` (centres unmarked) [Example 131, tert-butyl 4-((4-amino-5,7-dimethylpyrido[2,3-d]pyrimidin-2-yl)amino)azepane-1-carboxylate]: the Emax fell in the range of 0 to 100% and the EC (100% of 200 uM G418 response) is > 100 µM.
For `Cc1cc(C)c2c(N)nc(NC3CCN(Cc4ccc(C(F)F)cc4)CC3)nc2n1` [Example 485], the Emax is 100 to 3000% and the EC (100% of 200 uM G418 response) is 1 to 10 µM.
With `Cc1cc(C)c2c(N)cc(NC3CCN(C)CC3)nc2n1` [Example 291], the Emax was in the range of 100 to 3000% and the EC (100% of 200 uM G418 response) lay in the range of 1 to 10 µM.
With `CN1CCC(Nc2nc(N)c3ccc(OC4CCC4)nc3n2)CC1` [Example 33, 7-cyclobutoxy-N^2-(1-methylpiperidin-4-yl)pyrido[2,3-d]pyrimidine-2,4-diamine], the Emax fell in the range of 100 to 3000% and the EC (100% of 200 uM G418 response) was 10 to 100 µM.
`Cc1cc(C)c2c(N)cc(NCCCN3CCOCC3)nc2n1` [Example 300]: the Emax was in the range of 100 to 3000% and the EC (100% of 200 uM G418 response) lay in the range of 1 to 10 µM.
Taken in the same sequence, the figures for `CNc1nc(NC2CCN(Cc3ccccc3O)CC2)nc2nc(C)c3c(c12)CCC3` [Example 544] were 100 to 3000% and 0.1 to 1 µM.
As for `CC(=O)NCCNc1nc(NC2CCN(C)CC2)nc2nc(C)cc(C)c12` [Example 355], the Emax is 0 to 100% and the EC (100% of 200 uM G418 response) was > 31.6 µM.
With `CNc1nc(N[C@@H]2CCNC2)nc2nc(C)c(Br)c(C)c12` [Example 331], the Emax is 100 to 3000% and the EC (100% of 200 uM G418 response) lay in the range of 0.1 to 1 µM.
Taken in the same sequence, the figures for `Cc1cc(C)c2c(N)nc(NC3CCN(Cc4ccc(C#N)cc4F)CC3)nc2n1` [Example 571] were 100 to 3000% and 1 to 10 µM.
As for `Cc1cc(C)c2c(N)nc(NCCCN3CCCCC3C)nc2n1` (centres unmarked) [Example 150], the Emax lay within 100 to 3000% and the EC (100% of 200 uM G418 response) lay within 1 to 10 µM.
`CNc1nc(NC2CNCC2C#N)nc2nc(C)cc(C)c12` (single isomer, unassigned) [Example 451]: the pC100% entry is on record as “* (pC100 ≤ 4.5)”. For the same compound, the “Fold Over Control” value (maximum fold response relative to 200 μM G418) is reported as “# (Fold over Ctrl ≥ 0 ≤ 1)”.
On to `Cc1cc(C)c2c(N)nc(NC3CN(C)C3)nc2n1` [Example 153], for which the Emax is 0 to 100% and the EC (100% of 200 uM G418 response) is > 31.6 µM.
In the case of `CNc1nc(N[C@H]2CNCC[C@@H]2O)nc2nc(C)cc(C)c12` [Example 608], the EC (100% of 200 uM G418 response) is 1 to 10 µM.
`Cc1nc2nc(NC3CCN(C)CC3)nc(N)c2c2c1CCC2` [Example 11, 6-methyl-N^3-(1-methylpiperidin-4-yl)-8,9-dihydro-7H-cyclopenta[4,5]pyrido[2,3-d]pyrimidine-1,3-diamine]: the Emax is 100 to 3000% and the EC (100% of 200 uM G418 response) lay within 0.1 to 1 µM.
For `CNc1nc(NCC23CCC[C@H]2N(C)CC3)nc2nc(C)cc(C)c12` (some centres unmarked) [Example 405], in that order: 100 to 3000% and 1 to 10 µM.
In the case of `Cc1nc2nc(NC3CCN(Cc4cc(F)ccc4O)CC3)nc(N)c2c2c1CCC2` [Example 535], the Emax was 100 to 3000% and the EC (100% of 200 uM G418 response) fell in the range of 0.1 to 1 µM.
For `CNc1nc(N[C@@H]2C[C@H](O)CN(C)C2)nc2nc(C)cc(C)c12` [Example 603], in that order: 100 to 3000% and 1 to 10 µM.
For the compound `CN1CCC(Nc2nc(N)c3cccnc3n2)CC1` [Example 1, N^2-(1-methylpiperidin-4-yl)pyrido[2,3-d]pyrimidine-2,4-diamine], the Emax was 100 to 3000% and the EC (100% of 200 uM G418 response) fell in the range of 10 to 100 µM.
For the compound `Cc1cc(C)c2c(N)nc(NCCCN3CC(C(F)(F)F)C3)nc2n1` [Example 190], the Emax was in the range of 100 to 3000% and the EC (100% of 200 uM G418 response) is 10 to 100 µM.
As for `CNCc1cccc(-c2ccc3c(N)nc(NC4CCN(C)CC4)nc3n2)c1` [Example 109], the Emax lay in the range of 100 to 3000% and the EC (100% of 200 uM G418 response) was in the range of 10 to 100 µM.
`CNc1cc(N[C@H]2CN(C)C[C@H]2OC)nc2nc3c(c(C)c12)CCC3` [Example 424]: the Emax was 100 to 3000% and the EC (100% of 200 uM G418 response) was 0.1 to 1 µM.
With `Cc1ccnc2nc(NC3CCN(C)CC3)nc(N)c12` [Example 2, 5-methyl-N^2-(1-methylpiperidin-4-yl)pyrido[2,3-d]pyrimidine-2,4-diamine], the Emax lay within 100 to 3000% and the EC (100% of 200 uM G418 response) was 10 to 100 µM.
With `CNc1cc(N[C@H]2CN(C)C[C@H]2O)nc2nc3c(c(C)c12)CCC3` [Example 619], the Emax lay in the range of 100 to 3000% and the EC (100% of 200 uM G418 response) lay in the range of 1 to 10 µM.
With `CNc1nc(N[C@H]2CN[C@@H](CO)C2)nc2nc(C)cc(C)c12` [Example 411], the EC (100% of 200 uM G418 response) fell in the range of 1 to 10 µM.
Turning to `COCCN1CCC(Nc2nc(N)c3c(C)cc(C)nc3n2)CC1` [Example 172], the Emax lay in the range of 100 to 3000% and the EC (100% of 200 uM G418 response) lay in the range of 10 to 100 µM.
For the compound `Cc1cc(C)c2c(N)nc(NC3(CO)CCNCC3)nc2n1` [Example 207], the Emax was 0 to 100% and the EC (100% of 200 uM G418 response) is > 31.6 µM.
For the compound `Cc1c2c(nc3nc(NC4CCN(Cc5cccc(S(N)(=O)=O)c5)CC4)nc(N)c13)CCC2` [Example 665], the Emax lay within 100 to 3000% and the EC (100% of 200 uM G418 response) fell in the range of 1 to 10 µM.
On to `CNc1nc(NC2CC3CCC2N3)nc2nc(C)cc(C)c12` (centres unmarked) [Example 517, N^2-(-7-azabicyclo[2.2.1]heptan-2-yl)-N^4,5,7-trimethylpyrido[2,3-d]pyrimidine-2,4-diamine], for which the Emax lay within 100 to 3000% and the pC100% result is reported as “++ (pC100% > 5.0 ≤ 6.0)”.
For `CNc1cc(N[C@@H]2CCN(C)C2)nc2nc(C)cc(C)c12` [Example 515, (R)—N^4,5,7-trimethyl-N^2-(1-methylpyrrolidin-3-yl)-1,8-naphthyridine-2,4-diamine], the Emax fell in the range of 100 to 3000% and the EC (100% of 200 uM G418 response) fell in the range of 1 to 10 µM.
For the compound `CNc1nc(N[C@H]2CNC[C@@H]2F)nc2nc(C)cc(C)c12` [Example 334], the EC (100% of 200 uM G418 response) lay in the range of 1 to 10 µM.
In the case of `CN1CCC(Nc2nc(N)c3ccc(-c4ccc(C(=O)O)cc4)nc3n2)CC1` [Example 84], the Emax lay in the range of 0 to 100% and the EC (100% of 200 uM G418 response) was > 100 µM.
On to `Cc1cc(C)c2c(N)nc(NC3CCN(C4COC4)CC3)nc2n1` [Example 197], for which the Emax was in the range of 0 to 100% and the EC (100% of 200 uM G418 response) is > 31.6 µM.
Taken in the same sequence, the figures for `CN1CCC(Nc2nc(N)c3ccc(-c4ccc(C(F)(F)F)cc4)nc3n2)CC1` [Example 66] were 0 to 100% and > 100 µM.
For `Cc1c2c(nc3nc(NC4CCN(Cc5cccnc5O)CC4)nc(N)c13)CCC2` [Example 664], the Emax lay within 0 to 100% and the EC (100% of 200 uM G418 response) is > 31.6 µM.
Regarding `Cc1c2c(nc3nc(NC4CCN(Cc5ccc(S(N)(=O)=O)cc5)CC4)nc(N)c13)CCC2` [Example 667], the Emax is 100 to 3000% and the EC (100% of 200 uM G418 response) was 1 to 10 µM.
As for `CNc1nc(NC2CC3CC2CN3C)nc2nc(C)cc(C)c12` (single isomer, unassigned) [Example 431], the Emax is 100 to 3000% and the pC100% entry is listed as “+ (pC100% > 4.0 ≤ 5.0)”.
For `Cc1cc(C)c2c(NCCC(=O)N(C)C)nc(NC3CCN(C)CC3)nc2n1` [Example 354], the Emax lay within 0 to 100% and the EC (100% of 200 uM G418 response) was > 31.6 µM.
`CNc1nc(NC2CNCC2C(F)F)nc2nc(C)cc(C)c12` (single isomer, unassigned) [Example 429]: the pC100% result was “+++ (pC100% > 6.0 ≤ 7.0)”.
Turning to `COCc1ccccc1-c1ccc2c(N)nc(NC3CCN(C)CC3)nc2n1` [Example 58], the Emax lay within 100 to 3000% and the EC (100% of 200 uM G418 response) lay in the range of 10 to 100 µM.
Consider `CC#Cc1ccnc2nc(NC3CCN(C)CC3)nc(N)c12` [Example 251, N^2-(1-methylpiperidin-4-yl)-5-(prop-1-yn-1-yl)pyrido[2,3-d]pyrimidine-2,4-diamine], for which the Emax lay in the range of 100 to 3000% and the EC (100% of 200 uM G418 response) was in the range of 10 to 100 µM.
For the compound `CN1CCC(Nc2nc(N)c3ccc(-c4ccncc4)nc3n2)CC1` [Example 111], the EC (100% of 200 uM G418 response) lay within 10 to 100 µM.
For `Cc1cc(C)c2c(N)nc(NC3CCN(Cc4c(Cl)cccc4Cl)CC3)nc2n1` [Example 470], the Emax was 100 to 3000% and the EC (100% of 200 uM G418 response) was 1 to 10 µM.
For the compound `Cc1cc(C)c2c(N)nc(N[C@@H]3CCNC[C@H]3F)nc2n1` [Example 585], the Emax was 100 to 3000% and the EC (100% of 200 uM G418 response) was 1 to 10 µM.
